Some results are limits rather than exact numbers.

In general, Ki refers to the equilibrium dissociation constant of an inhibitor or competing ligand from its target. Read a low Ki as higher affinity.

Experiment [1] addresses Kappa-type opioid receptor (Cavia porcellus, UniProt P41144). Put plainly: Displacement of [3H]-U69593 from KOR in guinea pig brain membranes measured by competitive radioligand receptor binding assay. The experiment is classed as cell membranes, Membrane. (Loss of bound radioactivity is the signal in a displacement assay; it reports binding, not function.)
Experiment [2] concerns the target T1, Sigma intracellular receptor 2 (Rattus norvegicus, UniProt Q5U3Y7).
T1 sequence (Q5U3Y7 whole entry): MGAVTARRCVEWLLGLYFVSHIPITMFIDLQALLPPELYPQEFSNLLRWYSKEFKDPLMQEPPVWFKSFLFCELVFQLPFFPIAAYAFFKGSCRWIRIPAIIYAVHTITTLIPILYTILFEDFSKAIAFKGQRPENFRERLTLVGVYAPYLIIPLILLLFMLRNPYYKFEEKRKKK
Put plainly: Displacement of [3H]-di-o-tolylguanidine from sigma2 receptor in rat liver membrane measured by competitive radioligand receptor binding assay. The experiment is classed as cell membranes.

The target of experiment [3] is Sigma non-opioid intracellular receptor 1 (Cavia porcellus, UniProt Q60492). Put plainly: Displacement of [3H]-(+)-pentazocine from sigma1 receptor in guinea pig brain membrane measured by competitive radioligand receptor binding assay. Format: cell membranes.
For the next experiment, the target named is Mu-type opioid receptor (Cavia porcellus, UniProt P97266). Put plainly: Displacement of [3H]-DAMGO from MOR in guinea pig brain membranes measured by competitive radioligand receptor binding assay. The experiment is classed as cell membranes, Membrane.
Experiment [4] deals with Delta-type opioid receptor (Rattus norvegicus, UniProt P33533). Put plainly: Displacement of [3H]-DPDPE from DOR in rat brain membranes measured by competitive radioligand receptor binding assay. Format: cell membranes, Membrane.

Consider `O=C(Cc1ccc(Cl)c(Cl)c1)N1CCC2CC1[C@H](N1CCCC1)C2` (stereo partly drawn), for which the affinity in experiment [1], expressed as Ki, was 7 nM.
`O=C(Cc1ccc(Cl)c(Cl)c1)N1CC[C@H]2CC[C@@H](N3CCCC3)[C@@H]1C2` came in with an inhibitory constant (Ki) in experiment [2] of 154 nM.
For `O=C(Cc1ccc(Cl)c(Cl)c1)N1CCN2CC[C@H](N3CCCC3)C1C2` (stereo partly drawn), the Ki in experiment [1] was above 1000 nM.
`CN(C)[C@@H]1CCC2CCN(C(=O)Cc3ccc(Cl)c(Cl)c3)C1C2` (mixture of isomers) had an inhibition constant (Ki) in experiment [2] of 608 nM.
With `CN(C)[C@@H]1C[C@@H]2CCN(C(=O)Cc3ccc(Cl)c(Cl)c3)[C@H]1C2`, the inhibition constant Ki in experiment [3] was 292 nM; in experiment [1], 13 nM; at Mu-type opioid receptor, above 1000 nM; in experiment [2] it was 811 nM.
Turning to `O=C(Cc1ccc(Cl)c(Cl)c1)N1CC[C@H]2C[C@@H]1[C@@H](N1CCCC1)C2`, the Ki is 10 nM in experiment [3], 1750 nM in experiment [1] and 171 nM in experiment [2].
For the compound `O=C(Cc1ccc(Cl)c(Cl)c1)N1CC[C@H]2C[C@@H](N3CCCC3)[C@@H]1C2`, the Ki was 56 nM in experiment [3], 542 nM in experiment [4], 7 nM in experiment [1] and 534 nM in experiment [2].
Regarding `COC(=O)N1CCN(C(=O)Cc2ccc(Cl)c(Cl)c2)[C@H](CN2CCCC2)C1`, the Ki in experiment [1] is 0.46 nM.
With `O=C(Cc1ccc(Cl)c(Cl)c1)N1CCN2CC[C@@H](N3CCCC3)C1C2` (stereo partly drawn), the Ki in experiment [1] was 73 nM.
The same measure, in the same setting: the same measure for `O=C(Cc1ccc(Cl)c(Cl)c1)N1CCCCC1CN1CCCC1` (stereo not drawn): 0.24 nM.
For the compound `CN(C)[C@H]1C[C@H]2CCN(C(=O)Cc3ccc(Cl)c(Cl)c3)[C@@H]1C2`, the results for the Ki in experiment [3], in experiment [1] and in experiment [2] were 17 nM, 531 nM and 213 nM, respectively.
Compound `O=C(Cc1ccc(Cl)c(Cl)c1)N1CCC2CC1[C@@H](N1CCCC1)C2` (stereo partly drawn) yielded a Ki in experiment [1] of 862 nM.
Consider `O=C(Cc1ccc(Cl)c(Cl)c1)N1CC[C@@H]2CC[C@H](N3CCCC3)[C@H]1C2`, for which the Ki in experiment [2] stood at 487 nM.

For the origin of these results see ChEMBL document CHEMBL5154699 (Eur J Med Chem, 2022).
